Test [1] has as its target T1, S1PL2021 (Burkholderia pseudomallei, UniProt Q63IP8).
T1 construct: gene BPSS2021

For test [2], the target named is T1, S1PL2021. This is another data set of the same source.

Structures are written as SMILES.

T1 sequence (Q63IP8 21-493 limits assumed): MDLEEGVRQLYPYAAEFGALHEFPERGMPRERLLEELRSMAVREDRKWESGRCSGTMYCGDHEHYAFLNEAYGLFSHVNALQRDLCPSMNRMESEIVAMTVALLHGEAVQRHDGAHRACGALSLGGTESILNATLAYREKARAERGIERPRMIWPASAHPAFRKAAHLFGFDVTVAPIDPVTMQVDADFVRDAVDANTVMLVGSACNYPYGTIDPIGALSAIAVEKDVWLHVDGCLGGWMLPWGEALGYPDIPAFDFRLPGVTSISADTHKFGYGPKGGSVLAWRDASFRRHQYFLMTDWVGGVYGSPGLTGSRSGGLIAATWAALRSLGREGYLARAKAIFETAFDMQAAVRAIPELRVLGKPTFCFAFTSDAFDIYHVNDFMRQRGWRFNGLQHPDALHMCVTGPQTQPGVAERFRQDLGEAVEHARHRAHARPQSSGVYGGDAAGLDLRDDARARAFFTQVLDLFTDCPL

On to `CCCCCCCCCCCCC/C=C/[C@@H](O)[C@@H](N)CO` [D-erythro sphingosine], for which, at S1PL2021 [1], the “UV-vis spectroscopy of PLP” value is listed as “S1PL2021 could also bind the nonphosphorylated substrate, D-erythro sphingosine”.
For the compound `Cc1ncc(COP(=O)(O)O)c(C=O)c1O` [PLP], the “X-ray crystal structure, 2.1 Å” value at S1PL2021 [2] is listed as “dimer of S1PL with the PLP cofactor present as an internal aldimine with residue K271”.
